From US20090048258A1, “Amide Compound” (priority 2005, published 2009)

What follows are compounds tested against T1, Human DGAT1 (Homo sapiens, UniProt O75907) (assay: DGAT inhibitory activity: [14C]-triglyceride synthesis by DGAT1 high expression Sf9 microsome). Conditions: Table 1, 25 μM dioleoylglycerol, 25 μM [14C]-Oleoyl-CoA, 32° C., 15 min, read-out: DGAT inhibitory activity (according to IC50).
T1 construct: my translation of the primer: M-G-DYKDDDD-GDRGSSRRR) (N); made in house; host or cells: Sf9 insect cells (recombinant baculovirus BAC-DGAT1, pFASTBAC1); microsome fraction
T1 sequence (O75907 1-488): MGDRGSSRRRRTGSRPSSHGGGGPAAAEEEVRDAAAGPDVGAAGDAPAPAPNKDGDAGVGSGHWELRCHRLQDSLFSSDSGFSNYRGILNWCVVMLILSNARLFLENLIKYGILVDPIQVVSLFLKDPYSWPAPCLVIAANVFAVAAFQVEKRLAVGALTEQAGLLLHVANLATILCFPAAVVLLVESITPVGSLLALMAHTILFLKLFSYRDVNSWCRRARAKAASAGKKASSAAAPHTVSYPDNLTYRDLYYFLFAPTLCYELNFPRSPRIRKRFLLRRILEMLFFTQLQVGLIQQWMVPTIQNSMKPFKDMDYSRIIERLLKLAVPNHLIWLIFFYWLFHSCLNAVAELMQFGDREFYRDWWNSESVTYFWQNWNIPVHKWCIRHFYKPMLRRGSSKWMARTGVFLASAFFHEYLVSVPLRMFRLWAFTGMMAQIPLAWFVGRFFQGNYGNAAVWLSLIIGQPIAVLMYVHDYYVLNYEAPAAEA
Assay type: biochemical
Experimental: The primer base sequence is shown below.
The PCR reaction was conducted using a KOD-plus kit (TOYOBO). The obtained PCR product was electrophoresed on agarose gel (1%), the DNA fragment amplified by PCR was recovered from the gel, and then digested with restriction enzymes EcoRI and SpeI. […] Furthermore, using BAC-TO-BAC Baculovirus Expression System (Invitrogen), recombinant baculovirus BAC-DGAT1 was prepared.
SF9 cells were sown at 1×10^6 cells/ml on Sf-900II SEM medium (1 L, Invitrogen) containing 10% fetal calf serum (Trace), 50 mg/L gentamicin (Invitrogen) and 0.1% Pluronic F-68 (Invitrogen), and shaking culture was performed using a 2 L volume Erlenmeyer at 27° C., 100 rpm. After culturing for 24 hr, recombinant baculovirus BAC-DGAT1 (6.7 mL) was added, and the mixture was further cultured for 3 days. The culture medium was centrifuged at 2,000 rpm for 5 min to give virus-infected cells. The infected cells were washed with a phosphate buffered saline (Invitrogen), centrifuged under the same conditions, and the cells were preserved at −80° C. The cryopreserved cells were thawed in ice, suspended in buffer A (50 mM Tris buffer (30 mL, pH 7.4) containing 20% glycerol, 0.15 M NaCl) supplemented with Complete Protease Inhibitor (Boehringer), and ruptured 3 times with a Polytron homogenizer (Kinematica) at 20,000 rpm for 30 sec. The Sf9 microsome fractions were obtained by a conventional method and cryopreserved at −80° C. as a DGAT1 high expression Sf9 microsome.
As a DGAT1 reaction buffer, a solution having a composition of 100 mM Tris-HCl (pH 7.5), 250 mM sucrose, 150 mM MgCl2, 0.01% bovine serum albumin (BSA) was used. […] A mixture of 300 μL of chloroform:methanol (=1:2) was added to the reaction mixture to quench the reaction. The reaction mixture was sufficiently mixed and saline (200 μL) was added to partition the mixture between a chloroform layer (lower layer) and an aqueous layer (upper layer). The chloroform layer (50 μL) was spotted on a thin layer chromatography silica gel plate (TLC plate, Merck) and developed with a solvent (n-hexane:diethyl ether:ethyl acetate:acetic acid=74:15:15:1). The developed TLC plate was dried, contacted with a BAS imaging plate (manufactured by FUJIFILM) and measured with BAS2500 (manufactured by FUJIFILM) 16 hr later to numerically show the amount of [^14C]-triglyceride (TG amount) produced during the reaction. The inhibitory rate was calculated by the following formula:
Inhibitory rate (%)=(1−(TG amount in the case with addition of test compound−blank TG amount)/(control TG amount−blank TG amount))×100
The count of the triglyceride produced in the solution reacted without addition of the test compound was used as a “control TG amount”, and the count of the triglyceride produced in the solution reacted without addition of the test compound and DGAT1 high expression Sf9 microsome was used as a “blank TG amount”.
Compound `CCOc1ccc(C(=O)CCC(=O)Nc2cc(-c3ccc(F)cc3)cc(-c3ccccc3)n2)cc1OCC` [Example 43, 4-(3,4-diethoxyphenyl)-N-(4-(4-fluorophenyl)-6-phenylpyridin-2-yl)-4-oxobutanamide] has an IC50 of 50 to 500 nM.
`O=C(CCC(=O)c1ccc2c(c1)CCO2)Nc1nc(-c2ccccc2)c(Cc2ccccc2)s1` [Example 27, N-(5-benzyl-4-phenyl-1,3-thiazol-2-yl)-4-(2,3-dihydro-1-benzofuran-5-yl)-4-oxobutanamide] showed an IC50 of no more than 10 nM.
`CCOc1ccc(C(=O)CCC(=O)Nc2cc(-c3ccccc3)c(CC3CCCCC3)s2)cc1OCC` [Example 46, N-(5-(cyclohexylmethyl)-4-phenyl-2-thienyl)-4-(3,4-diethoxyphenyl)-4-oxobutanamide] showed an IC50 of 50 to 500 nM.
Compound `CCOc1ccc(C(=O)CCC(=O)Nc2ccn(Cc3ccccc3)c2-c2ccccc2)cc1OCC` [Example 19, N-(1-benzyl-2-phenyl-1H-pyrrol-3-yl)-4-(3,4-diethoxyphenyl)-4-oxobutanamide] has an IC50 of 10 to 50 nM.
With `O=C(O)Cc1ccc(C(=O)CCC(=O)Nc2nc(-c3ccccc3)c(Cc3ccccc3)s2)cc1` [Example 35] the IC50 was 500 to 10000 nM.
Work on `COCOc1ccc(C(=O)CCC(=O)Nc2nc(-c3ccccc3)c(Cc3ccccc3)s2)cc1` [Example 32, N-(5-benzyl-4-phenyl-1,3-thiazol-2-yl)-4-oxo-4-[4-(methoxymethoxy)phenyl]butanamide] yielded an IC50 of 10 to 50 nM.
`O=C(CCC(=O)c1ccc2c(c1)CCO2)Nc1cc(-c2ccccc2)c(Cc2ccccc2)s1` [Example 49, N-(5-benzyl-4-phenyl-2-thienyl)-4-(2,3-dihydro-1-benzofuran-5-yl)-4-oxobutanamide] showed an IC50 of 10 to 50 nM.
`CCOc1ccc(C(=O)CCC(=O)Nc2nc(-c3ccccc3)c(Cc3ccccc3)s2)cc1/C=C/C(=O)O` [Example 31, (2E)-3-(5-{4-[(5-benzyl-4-phenyl-1,3-thiazol-2-yl)amino]-4-oxobutanoyl}-2-ethoxyphenyl)acrylic acid] gave an IC50 of 50 to 500 nM.
`CCOc1ccc(C(=O)CCC(=O)Nc2cnn(Cc3ccccc3)c2-c2ccccc2)cc1OCC` [Example 21, N-(1-benzyl-5-phenyl-1H-pyrazol-4-yl)-4-(3,4-diethoxyphenyl)-4-oxobutanamide] gave an IC50 of 500 to 10000 nM.
For `CCCCc1sc(NC(=O)CCC(=O)c2ccc(OCC)c(OCC)c2)cc1-c1ccccc1` [Example 58, N-(5-butyl-4-phenyl-2-thienyl)-4-(3,4-diethoxyphenyl)-4-oxobutanamide], the IC50 was 50 to 500 nM.

Same assay, conditions: Table 2, 25 μM dioleoylglycerol, 25 μM [14C]-Oleoyl-CoA, 32° C., 15 min, read-out: DGAT inhibitory activity (according to IC50)
`CCOc1ccc(C(=O)CCC(=O)Nc2cc(-c3ccoc3)cc(-c3ccccc3)n2)cc1OCC` [Example 117, 4-(3,4-diethoxyphenyl)-N-[4-(3-furyl)-6-phenylpyridin-2-yl]-4-oxobutanamide] was tested, and the IC50 was 50 to 500 nM.
With `CCOc1ccc(C(=O)CCC(=O)Nc2cc(-c3ccccc3)c(Cc3ccccc3)s2)cc1Br` [Example 98, N-(5-benzyl-4-phenyl-2-thienyl)-4-(3-bromo-4-ethoxyphenyl)-4-oxobutanamide] the IC50 was 50 to 500 nM.
Compound `CCOc1ccc(C(=O)CCC(=O)Nc2cc(-c3cc(C)c(O)c(C)c3)cc(-c3ccccc3)n2)cc1OCC` [Example 151, 4-(3,4-diethoxyphenyl)-N-[4-(4-hydroxy-3,5-dimethylphenyl)-6-phenylpyridin-2-yl]-4-oxobutanamide] has an IC50 of 10 to 50 nM.
For `COc1ccc(-c2cc(NC(=O)CCC(=O)c3ccc4c(c3)CCO4)nc(-c3ccccc3)c2)cc1` [Example 155, 4-(2,3-dihydro-1-benzofuran-5-yl)-N-[4-(4-methoxyphenyl)-6-phenylpyridin-2-yl]-4-oxobutanamide], the IC50 was 50 to 500 nM.
Compound `O=C(CCC(=O)c1ccc2c(c1)CCO2)Nc1cc(-c2cccc(CO)c2)cc(-c2ccccc2)n1` [Example 167, 4-(2,3-dihydro-1-benzofuran-5-yl)-N-{4-[3-(hydroxymethyl)phenyl]-6-phenylpyridin-2-yl}-4-oxobutanamide] has an IC50 of 50 to 500 nM.
For `CCOc1ccc(C(=O)CCC(=O)Nc2cc(-c3ccc(N4CCOCC4)cc3)cc(-c3ccccc3)n2)cc1OCC` [Example 129, 4-(3,4-diethoxyphenyl)-N-[4-(4-(morpholin-4-yl)phenyl)-6-phenylpyridin-2-yl]-4-oxobutanamide], the IC50 was 500 to 10000 nM.
`COc1cc(-c2cc(NC(=O)CCC(=O)c3ccc4c(c3)CCO4)nc(-c3ccccc3)c2)ccc1O` [Example 181, 4-(2,3-dihydro-1-benzofuran-5-yl)-N-[4-(4-hydroxy-3-methoxyphenyl)-6-phenylpyridin-2-yl]-4-oxobutanamide] showed an IC50 of 10 to 50 nM.
`O=C(CCC(=O)c1ccc2c(c1)CCO2)Nc1cc(-c2cccc(OC(F)(F)F)c2)cc(-c2ccccc2)n1` [Example 175, 4-(2,3-dihydro-1-benzofuran-5-yl)-4-oxo-N-{6-phenyl-4-[3-(trifluoromethoxy)phenyl]pyridin-2-yl}butanamide] was tested, and the IC50 was 50 to 500 nM.
`CCOc1ccc(C(=O)CCC(=O)Nc2cc(-c3cccc(OC)c3)c3ccccc3n2)cc1OCC` [Example 80, 4-(3,4-diethoxyphenyl)-N-[4-(3-methoxyphenyl)quinolin-2-yl]-4-oxobutanamide] showed an IC50 of 10 to 50 nM.
Work on `CCOc1ccc(C(=O)CCC(=O)Nc2cc(C(C)(C)C)nn2-c2ccc(C(C)(C)C)cc2)cc1OCC` [Example 100, N-[3-tert-butyl-1-(4-tert-butylphenyl)-1H-pyrazol-5-yl]-4-(3,4-diethoxyphenyl)-4-oxobutanamide] yielded an IC50 of 500 to 10000 nM.
In the case of `CCOc1ccc(C(=O)CCC(=O)Nc2cc(-c3cccc(CCC(=O)OC)c3)cc(-c3ccccc3)n2)cc1OCC` [Example 142, methyl 3-[3-(2-{[4-(3,4-diethoxyphenyl)-4-oxobutanoyl]amino}-6-phenylpyridin-4-yl)phenyl]propanoate], the IC50 is reported as 50 to 500 nM.
Work on `CCOc1ccc(C(=O)CCC(=O)Nc2cc(-c3ccc(C)cc3)c3cc(Br)ccc3n2)cc1OCC` [Example 76, N-[6-bromo-4-(4-methylphenyl)quinolin-2-yl]-4-(3,4-diethoxyphenyl)-4-oxobutanamide] yielded an IC50 of 10 to 50 nM.
`O=C(CCC(=O)c1ccc2c(c1)CCCC2)Nc1cc(-c2ccccc2)cc(-c2ccccc2)n1` [Example 105, N-(4,6-diphenylpyridin-2-yl)-4-oxo-4-(5,6,7,8-tetrahydronaphthalen-2-yl)butanamide] showed an IC50 of 50 to 500 nM.
`CCOc1ccc(C(=O)CCC(=O)Nc2cc3ccccc3c(-c3ccccc3)n2)cc1OCC` [Example 84, 4-(3,4-diethoxyphenyl)-4-oxo-N-(1-phenylisoquinolin-3-yl)butanamide] showed an IC50 of 500 to 10000 nM.
`CCOc1ccc(C(=O)CCC(=O)Nc2cc(-c3cnn(C)c3)cc(-c3ccccc3)n2)cc1OCC` [Example 119, 4-(3,4-diethoxyphenyl)-N-[4-(1-methyl-1H-pyrazol-4-yl)-6-phenylpyridin-2-yl]-4-oxobutanamide] was tested, and the IC50 was 50 to 500 nM.
In the case of `CCOc1ccc(C(=O)CCC(=O)Nc2cc(-c3ccc(C(=O)OC)cc3)cc(-c3ccccc3)n2)cc1OCC` [Example 112, methyl 4-(2-{[4-(3,4-diethoxyphenyl)-4-oxobutanoyl]amino}-6-phenylpyridin-4-yl)benzoate], the IC50 is reported as 500 to 10000 nM.
`O=C(CCC(=O)c1ccc2c(c1)CCO2)Nc1cc(-c2ccc(CN3CCOCC3)cc2)cc(-c2ccccc2)n1` [Example 161, 4-(2,3-dihydro-1-benzofuran-5-yl)-N-{4-[4-(morpholin-4-ylmethyl)phenyl]-6-phenylpyridin-2-yl}-4-oxobutanamide] gave an IC50 of 500 to 10000 nM.
